Experimental data from article PMC9579148 (European Journal of Medicinal Chemistry, 2022).
Residues, ends and D or L forms follow the SMILES beside them. *: point of attachment. Octanoyl = CCCCCCCC(=O)*; Boc = CC(C)(C)OC(=O)*

Assays:
[1] = system: M^pro; settings: octapeptide progenitor, earlier work; cited from earlier work
[2] = Stability test in aqueous solution; type: physicochemical; settings: PBS pH 7.0, 25 °C and 37 °C, 3, 6, 8 and 24 h, HPLC
[3] = molecular target: SARS-CoV-2 M^pro (Severe acute respiratory syndrome coronavirus 2, UniProt P0DTD1); type: binding; settings: ITC
[4] = system: Vero cells
[5] = system: SARS-CoV-2 RG2674 (South African); test: Antiviral CPE reduction assay in Vero cells, RG2674; type: cell-based; settings: 100 CCID50, CPE, 5 days
[6] = system: SARS-CoV-2; settings: read-out: anti-SARS-CoV-2 activity EC50; cited from earlier work

| Molecule | Stoichiometry (N) [3] | Cytotoxicity, Cell morphology (MCC) [4] [μM] | EC50 [6] [µM] | other results |
| --- | --- | --- | --- | --- |
| AT1001 | – | – | – | enzymatic inhibition activity (partial inhibition) [1]: about 30% |
| CC(=O)NCC(=O)N[C@@H](Cc1ccccc1)C(=O)N[C@H](C=O)Cc1c[nH]cn1 [compound 4, Ac-Gly-Phe-His-CHO] (Ac-Gly-Phe-His-aldehyde) | 1.040 ± 0.012 | ≥100 | – | Stability in aqueous solution [2]: stable; Antiviral activity (EC50) RG2674 [5]: ineffective |
| CC(C)(C)OC(=O)NCC(=O)N[C@@H](Cc1ccccc1)C(=O)N[C@H](C=O)Cc1c[nH]cn1 [compound 57, Boc-Gly-Phe-His-CHO] (Boc-Gly-Phe-His-aldehyde) | 0.991 ± 0.015 | ≥100 | – | – |
| Ac-GGVLVQPG-NH2 [peptide 2] | – | – | 17.6 ± 2.4 | – |
| CCCCCCCC(=O)NCC(=O)N[C@@H](Cc1ccccc1)C(=O)N[C@H](C=O)Cc1c[nH]cn1 [compound 58, Octanoyl-Gly-Phe-His-CHO] (Octanoyl-Gly-Phe-His-aldehyde) | 0.966 ± 0.013 | ≥100 | – | – |
| Cc1cc(C(=O)N[C@@H](C)C(=O)N[C@H](C(=O)N[C@@H](CC(C)C)C(=O)N[C@H](/C=C/C(=O)OCc2ccccc2)C[C@@H]2CCNC2=O)C(C)C)no1 [N3, reference compound] | – | – | 16.8 ± 1.7 | – |
